The test system of test [1] is Human ovarian cancer OVCAR3 cells. The experiment in a line: Assay of cell proliferation (CellTiter-Glo). It counts as cell-based. The following applies: Homo sapiens, OVCAR-3, 144 h, 6 days, read-out: OVCAR3 IC50 of cell proliferation inhibitory activity. Put shortly:
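OVCAR3 cells, 2000/well in RPMI 1640 with 20% FBS, treated with nine 3-fold dilutions from 10 µM to 0.1 nM (0.5% DMSO) for 6 days at 37 °C. Viability by CellTiter-Glo luminescence; IC50 by four-parameter fit.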
(In ATP-based viability assays light output follows the ATP content of the culture.)

A further test addresses CDK2/cyclin E (Homo sapiens, UniProt P24941). The experiment in a line: Assay of kinase activity (ADP-Glo). In kind it is biochemical. Particulars: kinase inhibitory activity, read-out: CDK2/E1 IC50. Put shortly:
(§1)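 Kinase preincubated 10 min with compound in 50 mM Hepes, 10 mM MgCl2, 0.01% Brij35, 2 mM DTT, then substrate/ATP added for 60 min at 25 °C. ADP formed measured by ADP-Glo luminescence; IC50 by nonlinear concentration-response fitting.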
On the technique in general: ADP-Glo turns the ADP formed in a reaction into a luminescent signal.

A further test concerns the target CDK4/cyclin D1 (Homo sapiens, UniProt P11802). The experiment in a line: Assay of kinase activity (ADP-Glo). It counts as biochemical. Particulars: kinase inhibitory activity. Put shortly: as §1
A further test concerns the target CDK9/cyclin T1 (Homo sapiens, UniProt P50750). Nature of the test: Assay of kinase activity (ADP-Glo). It counts as biochemical. Particulars: kinase inhibitory activity. The method, boiled down:
(§2)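 ADP production quantified by luminescence after 60 min kinase reaction at 25 °C, started with substrate/ATP following 10 min enzyme-compound preincubation. Buffer: 50 mM Hepes, 10 mM MgCl2, 0.01% Brij35, 2 mM DTT. IC50 obtained by nonlinear curve fitting of inhibition data.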

A further test deals with CDK6/cyclin D3 (Homo sapiens, UniProt Q00534). Nature of the test: Assay of kinase activity (ADP-Glo). It counts as biochemical. The following applies: kinase inhibitory activity. Put shortly: as §2
Test [2] has as its system human breast cancer HCC1806 cells. Nature of the test: Assay of cell proliferation (CellTiter-Glo). In kind it is cell-based. The following applies: Homo sapiens, 144 h, 6 days, read-out: HCC1806 IC50 of cell proliferation inhibitory activity. Put shortly: (§3)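 Cells seeded per line at growth-adapted densities, treated 6 days at 37 °C/5% CO2 with nine 3-fold dilutions (10 µM to 0.1 nM final, 0.5% DMSO). Viability by CellTiter-Glo luminescence; IC50 from four-parameter fit.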

In test [3] the test system is human acute myeloid leukemia MV-4-11 cells. Nature of the test: Assay of cell proliferation (CellTiter-Glo). The following applies: MV4-11, 144 h, 6 days, read-out: MV-4-11 IC50 of cell proliferation inhibitory activity. It counts as cell-based. Put shortly:
as §3

For test [4], the system named is human gastric cancer MKN1 cells. Nature of the test: Assay of cell proliferation (CellTiter-Glo). Particulars: Homo sapiens, MKN-1, 144 h; MNK1, 6 days; read-out: MKN1 IC50 of cell proliferation inhibitory activity. It counts as cell-based. Put shortly: as §3

From patent publication EP4711369A1, “1H-[1,2,3]TRIAZOLO[4,5-H]QUINAZOLINE COMPOUNDS AS PROTEIN KINASE INHIBITORS” (Chengdu Cynogen Bio-Pharmaceutical Technology Co., Ltd., priority 2023, dated 2024) come the findings set out here.

The structures appear in SMILES notation.

CDK9/cyclin T1, sequence (P50750 whole entry, species assumed): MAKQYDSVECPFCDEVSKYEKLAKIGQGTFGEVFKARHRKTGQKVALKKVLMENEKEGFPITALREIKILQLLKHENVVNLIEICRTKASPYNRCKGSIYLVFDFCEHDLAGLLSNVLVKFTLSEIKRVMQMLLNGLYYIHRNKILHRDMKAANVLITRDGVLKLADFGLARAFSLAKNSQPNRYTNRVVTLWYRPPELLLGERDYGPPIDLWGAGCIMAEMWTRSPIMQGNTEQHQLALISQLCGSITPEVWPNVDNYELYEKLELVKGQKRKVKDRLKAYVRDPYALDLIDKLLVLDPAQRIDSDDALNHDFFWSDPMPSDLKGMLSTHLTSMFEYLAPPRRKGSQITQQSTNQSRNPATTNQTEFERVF
CDK9/cyclin T1, sequence (O60563 whole entry partner, species assumed): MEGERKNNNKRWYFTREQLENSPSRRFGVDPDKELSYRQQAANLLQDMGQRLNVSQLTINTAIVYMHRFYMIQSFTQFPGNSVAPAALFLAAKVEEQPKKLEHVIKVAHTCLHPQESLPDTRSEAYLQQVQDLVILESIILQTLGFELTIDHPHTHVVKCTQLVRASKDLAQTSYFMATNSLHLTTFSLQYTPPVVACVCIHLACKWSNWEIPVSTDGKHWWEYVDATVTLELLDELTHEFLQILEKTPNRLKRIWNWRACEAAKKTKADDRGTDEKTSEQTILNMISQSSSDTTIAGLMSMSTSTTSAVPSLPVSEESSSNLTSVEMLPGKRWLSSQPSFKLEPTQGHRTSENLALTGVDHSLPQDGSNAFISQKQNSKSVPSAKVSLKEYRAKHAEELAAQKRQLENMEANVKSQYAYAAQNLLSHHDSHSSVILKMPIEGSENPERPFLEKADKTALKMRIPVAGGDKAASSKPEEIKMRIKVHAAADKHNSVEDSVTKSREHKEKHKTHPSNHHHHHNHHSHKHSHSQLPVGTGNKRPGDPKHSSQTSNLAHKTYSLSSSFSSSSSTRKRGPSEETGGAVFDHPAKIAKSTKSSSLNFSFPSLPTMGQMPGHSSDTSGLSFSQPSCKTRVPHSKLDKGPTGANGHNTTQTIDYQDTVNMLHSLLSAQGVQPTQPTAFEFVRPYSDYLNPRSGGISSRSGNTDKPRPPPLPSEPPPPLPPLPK
CDK6/cyclin D3, sequence (Q00534 whole entry, species assumed): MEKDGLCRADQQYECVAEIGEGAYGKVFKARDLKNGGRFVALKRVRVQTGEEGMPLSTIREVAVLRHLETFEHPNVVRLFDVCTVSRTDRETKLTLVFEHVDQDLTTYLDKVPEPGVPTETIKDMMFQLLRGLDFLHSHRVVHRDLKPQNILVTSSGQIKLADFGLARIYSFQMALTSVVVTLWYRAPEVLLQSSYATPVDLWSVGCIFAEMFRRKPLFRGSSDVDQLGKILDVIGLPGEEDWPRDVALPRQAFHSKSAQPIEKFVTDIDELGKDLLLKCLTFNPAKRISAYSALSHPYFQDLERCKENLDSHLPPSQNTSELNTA
CDK6/cyclin D3, sequence (P30281 whole entry partner, species assumed): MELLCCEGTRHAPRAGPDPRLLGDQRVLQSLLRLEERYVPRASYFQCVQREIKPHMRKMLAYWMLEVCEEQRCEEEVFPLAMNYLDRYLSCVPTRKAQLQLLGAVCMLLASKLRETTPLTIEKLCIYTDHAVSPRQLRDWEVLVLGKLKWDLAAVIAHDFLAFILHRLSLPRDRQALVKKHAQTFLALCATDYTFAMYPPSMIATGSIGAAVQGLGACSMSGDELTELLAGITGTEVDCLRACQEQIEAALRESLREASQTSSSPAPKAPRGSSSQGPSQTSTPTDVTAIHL
CDK4/cyclin D1, sequence (P11802 whole entry, species assumed): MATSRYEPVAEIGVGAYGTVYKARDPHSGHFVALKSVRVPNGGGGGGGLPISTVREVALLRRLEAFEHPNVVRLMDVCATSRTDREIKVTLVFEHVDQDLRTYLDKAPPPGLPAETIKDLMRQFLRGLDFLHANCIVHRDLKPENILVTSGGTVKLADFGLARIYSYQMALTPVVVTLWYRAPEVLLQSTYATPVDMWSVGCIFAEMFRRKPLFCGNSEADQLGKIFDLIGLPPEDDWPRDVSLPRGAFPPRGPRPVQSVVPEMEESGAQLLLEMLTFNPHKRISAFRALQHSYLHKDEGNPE
CDK4/cyclin D1, sequence (P24385 whole entry partner, species assumed): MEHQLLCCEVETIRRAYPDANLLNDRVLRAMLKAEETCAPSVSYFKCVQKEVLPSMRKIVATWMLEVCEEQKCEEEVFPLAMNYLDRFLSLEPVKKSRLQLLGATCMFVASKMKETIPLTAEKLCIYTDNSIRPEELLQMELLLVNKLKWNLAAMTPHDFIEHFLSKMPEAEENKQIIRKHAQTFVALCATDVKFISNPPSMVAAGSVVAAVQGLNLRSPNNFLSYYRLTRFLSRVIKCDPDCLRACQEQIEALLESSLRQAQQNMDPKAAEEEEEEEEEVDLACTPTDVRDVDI

For the compound `C[C@@]1(O)CCC[C@H]1n1nnc2ccc3cnc(Nc4ccc(S(=O)(=O)NCCO)cc4)nc3c21` [Example I-71], the IC50 was 5 nM in test [1]; 0.9 nM on CDK2/cyclin E; 1 nM against CDK4/cyclin D1; 9 nM at CDK9/cyclin T1; 6 nM against CDK6/cyclin D3; 18 nM in test [2]. Moreover, the values for the IC50 in test [3] and in test [4] were 2 nM and 3 nM, respectively.
On to `CC(C)N[C@H]1CCN(C(=O)c2ccc(Nc3ncc4ccc5nnn([C@H](C)C(C)(C)O)c5c4n3)cc2)C1` [Example I-55, (4-((1-((R)-3-hydroxy-3-methylbutan-2-yl)-1H-[1,2,3]triazolo[4,5-H]quinazolin-8-yl)amino)phenyl)((S)-3-(isopropylamino)pyrrolidin-1-yl)methanone], for which the IC50 in test [1] is 31 nM; on CDK2/cyclin E, 0.7 nM; against CDK4/cyclin D1, 2 nM; on CDK9/cyclin T1 it was 6 nM; against CDK6/cyclin D3, 18 nM; in test [2], 80 nM. Also, the IC50 was determined as 5 nM in test [3] and 15 nM in test [4].
As to `CC(C)n1nnc2ccc3cnc(Nc4ccc(C(=O)N5CC[C@@H](F)C5)cc4)nc3c21` [Example I-2, (R)-(3-Fluoropyrrolidin-1-yl)(4-((1-isopropyl-1H-[1,2,3]triazolo[4,5-H]quinazolin-8-yl)amino)phenyl)methanone], the IC50 in test [1] amounted to 94 nM; on CDK2/cyclin E it was 0.3 nM; against CDK4/cyclin D1, 2 nM; against CDK9/cyclin T1 it was 8 nM; against CDK6/cyclin D3, 12 nM; in test [2], 175 nM. Besides, the IC50 amounted to 15 nM in test [3] and 46 nM in test [4].
Regarding `CC(C)n1nnc2ccc3cnc(Nc4ccc(C(=O)N5CCN[C@H](C)C5)cc4)nc3c21` [Example I-21, (R)-(4-((1-Isopropyl-1H-[1,2,3]triazolo[4,5-H]quinazolin-8-yl)amino)phenyl)(3-methylpiperazin-1-yl)methanone], the IC50 in test [1] was determined as 35 nM; at CDK2/cyclin E, 0.5 nM; on CDK4/cyclin D1 it was 1 nM; against CDK9/cyclin T1, 2 nM; against CDK6/cyclin D3 it was 14 nM; in test [2], 112 nM. The IC50 in test [3] was 4 nM; in test [4], 31 nM.
Consider `C[C@@H](n1nnc2ccc3cnc(Nc4ccc(C(=O)N5CCCN(C)CC5)cc4)nc3c21)C(C)(C)O` [Example I-61, (R)-(4-((1-(3-Hydroxy-3-methylbutan-2-yl)-1H-[1,2,3]triazolo[4,5-H]quinazolin-8-yl)amino)phenyl)(4-methyl-1,4-diazepan-1-yl)methanone], for which the IC50 in test [1] is 11 nM; at CDK2/cyclin E, 0.9 nM; against CDK4/cyclin D1, 1 nM; on CDK9/cyclin T1 it was 16 nM; against CDK6/cyclin D3, 2 nM; in test [2], 8 nM. The IC50 was 4 nM in test [3] and 8 nM in test [4].
For `C[C@@H](n1nnc2ccc3cnc(Nc4ccc(C(=O)N5CCOCC5)cc4)nc3c21)C(C)(C)O` [Example I-58, (R)-(4-((1-(3-Hydroxy-3-methylbutan-2-yl)-1H-[1,2,3]triazolo[4,5-H]quinazolin-8-yl)amino)phenyl)(morpholino)methanone], the IC50 in test [1] was 313 nM; on CDK2/cyclin E, 1 nM; against CDK4/cyclin D1 it was 2 nM; at CDK9/cyclin T1 it was 19 nM; against CDK6/cyclin D3, 9 nM; in test [2] it was 656 nM. Also, the IC50 is 19 nM in test [3] and 90 nM in test [4].
Turning to `CC(C)N[C@@H]1CCN(C(=O)c2ccc(Nc3ncc4ccc5nnn(C(C)C)c5c4n3)cc2)C1` [Example I-9, (R)-(4-((1-Isopropyl-1H-[1,2,3]triazolo[4,5-H]quinazolin-8-yl)amino)phenyl)(3-(isopropylamino)pyrrolidin-1-yl)methanone], the IC50 amounted to 26 nM in test [1]; 0.2 nM on CDK2/cyclin E; 1 nM at CDK4/cyclin D1; 2 nM against CDK9/cyclin T1; 15 nM against CDK6/cyclin D3; 53 nM in test [2]. Besides, the results for the IC50 in test [3] and in test [4] were 3 nM and 11 nM, respectively.
Take `C[C@@H](n1nnc2ccc3cnc(Nc4ccc(C(=O)N5CCS(=O)(=O)CC5)cc4)nc3c21)C(C)(C)O` [Example I-59, (R)-(1,1-Dioxothiomorpholino)(4-((1-(3-hydroxy-3-methylbutan-2-yl)-1H-[1,2,3]triazolo[4,5-H]quinazolin-8-yl)amino)phenyl)methanone]: the IC50 stood at 389 nM in test [1]; 1 nM on CDK2/cyclin E; 2 nM on CDK4/cyclin D1; 46 nM at CDK9/cyclin T1; 15 nM against CDK6/cyclin D3; 543 nM in test [2]. The IC50 in test [3] was 18 nM; in test [4] it was 127 nM.
Regarding `CC(C)n1nnc2ccc3cnc(Nc4ccc(C(=O)N5CCC(F)CC5)cc4)nc3c21` [Example I-18, (4-Fluoropiperidin-1-yl)(4-((1-isopropyl-1H-[1,2,3]triazolo[4,5-H]quinazolin-8-yl)amino)phenyl)metha none], the IC50 amounted to 214 nM in test [1]; 2 nM at CDK2/cyclin E; 5 nM on CDK4/cyclin D1; 25 nM against CDK9/cyclin T1; 35 nM on CDK6/cyclin D3; 247 nM in test [2]. The IC50 was found to be 23 nM in test [3] and 129 nM in test [4].
For `CC(C)N[C@H]1CCN(C(=O)c2ccc(Nc3ncc4ccc5nnn([C@@H]6CCC[C@@]6(C)O)c5c4n3)cc2)C1` [Example I-63, (4-((1-((1R,2R)-2-Hydroxy-2-methylcyclopentyl)-1H-[1,2,3]triazolo[4,5-H]quinazolin-8-yl)amino)phenyl)((S)-3-(isopropylamino)pyrrolidin-1-yl)methanone], the IC50 in test [1] turned out to be 6 nM; on CDK2/cyclin E, 0.08 nM; at CDK4/cyclin D1, 0.6 nM; at CDK9/cyclin T1 it was 3 nM; on CDK6/cyclin D3, 3 nM; in test [2], 15 nM. Moreover, the IC50 in test [3] and in test [4] was 1 nM throughout.
As for `C[C@@]1(O)CCC[C@H]1n1nnc2ccc3cnc(Nc4ccc(C(=O)N5CCS(=O)(=O)CC5)cc4)nc3c21` [Example I-68, (1,1-Dioxothiomorpholino)(4-((1-((1R,2R)-2-hydroxy-2-methylcyclopentyl)-1H-[1,2,3]triazolo[4,5-H]quinazolin-8-yl)amino)phenyl)methanone], the IC50 in test [1] stood at 181 nM; on CDK2/cyclin E it was 1 nM; against CDK4/cyclin D1 it was 2 nM; against CDK9/cyclin T1, 112 nM; against CDK6/cyclin D3 it was 34 nM; in test [2], 121 nM. For the same compound, the IC50 came to 8 nM in test [3] and 62 nM in test [4].
Turning to `CC(C)n1nnc2ccc3cnc(Nc4ccc(C(=O)N5CCCN(C)CC5)cc4)nc3c21` [Example I-34, (4-((1-Isopropyl-1H-[1,2,3]triazolo[4,5-H]quinazolin-8-yl)amino)phenyl)(4-methyl-1,4-diazepan-1-yl)methanone], the IC50 in test [1] was 7 nM; at CDK2/cyclin E it was 0.09 nM; against CDK4/cyclin D1, 0.7 nM; on CDK9/cyclin T1, 2 nM; against CDK6/cyclin D3, 19 nM; in test [2], 6 nM. For the same compound, the IC50 in test [3] was determined as 2 nM; in test [4] it was 5 nM.
